Entries after “also recorded” stand apart in the source; their conditions may differ.
Tests used:
MCF-7 sps cells [1] = test: MCF-7 sps tumors in NOD/SCID mice; assay type: in vivo; details: MCF-7 sps cells in NOD/SCID mice, 5 μM Niclosamide
MCF-7 SPS cells [2] = test: MCF-7 SPS spheroid proliferation and differentiation
Description: (§2) The morphology and number of the spheroids were further analyzed by software image pro plus.

MDA-MB 231 cells = test: Inhibition of MDA-MB 231 cells; assay type: cell-based, human; details: 3 μM
[3] = system: OVCICs sps cells collected from ovarian cancer patient(s); test: Patients' OVCA specimen-derived cells (pdOVCICs / OVCICs sps), MTS assay; assay type: cell-based, human; details: in vitro
Description: A total of 5000 pdOVCICs were seeded onto each well in 96-well plates and each plate was treated with different concentrations of Niclosamide in duplicates for 3 days. The vitality of pdOVCICs cells was measured by MTS assay.

PTCH = test: Protein expression in Niclosamide-treated MCF-7 sps cells: PTCH; assay type: cell-based; details: MCF-7 sps cells treated with Niclosamide
MDA-MB231 SPS cells = test: Survival of MDA-MB231 SPS cells; assay type: cell-based, human; details: following Niclosamide treatment
CP70 sps cells [4] = test: Cytotoxicity / vitality of CP70 sps cells (MTS assay); details: FIG. 14 / FIG. 15
Description: (§1) The vitality of the treated cells was measured by MTS assay using MTS-based CellTiter 96 aqueous non-radioactive cell proliferation assay kit (Promega) according to the manufacturer's instructions.
The vitality of the CP70 sps cells was measured by MTS assay. For preclinical test, two groups with five mice each were i.p. injected with 1×10^4 of CP70 sps cells alone or followed by Niclosamide treatment (10 mg/kg/daily) from day 1 to day 47, respectively. The body weights of the two groups of mice were monitored every 3 days during day 36 to day 48. After 48 days, the mice were sacrificed to examine the tumor nodules formation in the abdominal cavity.

CP70 sps cells [5] = test: CP70 sps tumors in NOD/SCID mice (preclinical test); assay type: in vivo
Description: For preclinical test, two groups with five mice each were i.p. injected with 1×10^4 of CP70 sps cells alone or followed by Niclosamide treatment (10 mg/kg/daily) from day 1 to day 47, respectively. […] After 48 days, the mice were sacrificed to examine the tumor nodules formation in the abdominal cavity.

OCT4 = test: Flow cytometry of OCT4 in MCF-7 sps cells; assay type: cell-based; details: 5 μM
MCF-7 SPS cells [6] = test: LOPAC compounds tested on MCF-7 SPS cells (Table 2); details: Compounds that inhibit cancer stem cells, 3 μM stated for Niclosamide
Description: as §2

Cyclin D1 = test: Protein expression in Niclosamide-treated MCF-7 sps cells: Cyclin D1; assay type: cell-based; details: MCF-7 sps cells treated with Niclosamide
Hes-1 = test: Protein expression in Niclosamide-treated MCF-7 sps cells: Hes-1; assay type: cell-based; details: MCF-7 sps cells treated with Niclosamide
OVCA sps cells = test: LOPAC compounds tested on OVCA sps cells, MTS / ATP-based assay (Table 3); assay type: cell-based; details: proliferation and differentiation
Description: CP70 sps cells were seeded in a 96-well culture plate (1×10^3 cells/well) and cultured for 24 hr, and then treated with 30 μM of various compounds selected from the LOPAC database. Following 3-day treatment, the vitality of the treated cells was measured by CellTiter-Glo® Luminescent Cell Vitality Assay kit (Promega) according to the manufacturer's instructions.
as §1

O=C(Nc1ccc([N+](=O)[O-])cc1Cl)c1cc(Cl)ccc1O [Niclosamide]
sizes and weights of the tumors vs untreated mice (MCF-7 sps cells [1]): smaller and lighter
inhibition of MCF-7 sps cells (MCF-7 SPS cells [2]; 3 μM): significantly inhibited
proliferation and differentiation of the spheroid (MCF-7 SPS cells [2]; MCF-7 SPS, 3 μM and 30 μM for 48 hr): efficiently inhibit
differentiation and proliferation / formation of MCF-7 SPS cells (MCF-7 SPS cells [2]; concentration not given): inhibit the formation; also recorded: significantly inhibited
inhibition of MDA-MB 231 cells (MDA-MB 231 cells): significantly inhibited
differentiation and growth of ovarian cancer cells [3]: successfully inhibited
inhibition of PTCH expression (PTCH): 79.2%
survival of MDA-MB231 SPS cells (MDA-MB231 SPS cells): negatively correlated with the treatment
numbers of ovarian cancer stem cells in CP70 SPS cell culture in vitro (CP70 sps cells [4]): inhibited
sizes and weights of the tumors vs untreated mice (CP70 sps cells [5]; CP70 sps cells in NOD/SCID mice, 5 μM Niclosamide): significantly different; also recorded: smaller and lighter
inhibition on cancer stem cells in pre-clinical ovarian cancer studies (CP70 sps cells [5]; mouse, in vivo): successful inhibition
numbers of ovarian cancer cells in the tumors (CP70 sps cells [5]; tumors from Niclosamide-treated animals (FIG. 13B)): inhibited
expression of OCT4 (OCT4): higher expression
Cancer cell survival (%) (MCF-7 SPS cells [6]): 1.4%
inhibition of Cyclin D1 expression (Cyclin D1): 57.4%
inhibition of Hes-1 expression (Hes-1): 33.1%
Cancer cell survival (%) (OVCA sps cells): 34.86%

From patent publication US20130261142A1, “COMPOUNDS USED FOR TREATING CANCER AND THE USE THEREOF” (priority 2010, published 2013)
